Data reported in patent publication US12202841B2, “Therapeutic agents for enhancing epithelial and/or endothelial barrier function” (ARTUS THERAPEUTICS, INC., priority 2022, dated 2025).
Entries after “also recorded” stand apart in the source; their conditions may differ.

Legend:
[1] = tested on: murine DSS model of ulcerative colitis; experiment: Murine DSS model of ulcerative colitis (acute); format: in vivo, mouse; conditions: for efficacy in the murine DSS model of colitis / DSS-elicited body weight loss / disease activity index (DAI) / colon length: 20 mg/kg oral gavage on days 4, 6, 8, 10; for efficacy in the murine DSS model of colitis: 2.5% DSS, C57BL/6 mice; for DSS-elicited body weight loss: FIG. 6E; for disease activity index (DAI): FIG. 6F; for colon length: day 12, FIG. 6B, 6C
Protocol: FIGS. 6A-F illustrate efficacy of ARTX-339, ARTX-405A, ARTX-413, and ARTX-425P1 in the murine DSS model of ulcerative colitis. A. C57BL/6 mice (7-8-week old mice) were supplied with 2.5% DSS in their drinking water for 7 days. Starting on day 4 post DSS treatment, mice were dosed once every other day with 100 μL vehicle (0.25% sodium carboxymethylcellulose used in the formulation of ARTX compounds), or 100 μL ARTX-339, ARTX-405A, ARTX-413, or ARTX-425P1 at 20 mg/kg body weight by oral gavage on days 4, 6, 8, and 10. Mice were euthanized on day 12. FITC dextran was administered to the mice via oral gavage 4 hours preceding euthanization. Following euthanization, colons were dissected, and their length measured. B. Measurements of colon length. C. Photographs of dissected colons. D. Measurement of FITC-dextran in serum following euthanization. […] Higher levels of serum FITC-dextran following DSS-treatment is an indication of a loss of barrier function. E. Body weight was measured every other day starting at day 0 with the initiation of DSS treatment. F. Disease activity index (DAI) scores were assigned every other day. The higher the DAI score, the worse the symptoms. **** indicates p<0.0001; *** indicates p<0.001; ** indicates=p<0.01.
A murine dextran sodium sulfate (DSS)-elicited model of ulcerative colitis was utilized to measure the efficacy of compounds in vivo. Oral administration of DSS in drinking water, a chemical colitogen with anticoagulant properties, leads to disruption of gut epithelium causing enhanced gut permeability, inflammation, and severe damage of gut barrier function^71,72. The rationale for using the murine DSS^71,72 model of UC is that it is a well-established gut epithelial barrier disrupting model that can be used to model both acute and chronic UC^70,71.
Starting on day 4 post DSS treatment, mice were dosed once every other day with 100 μL vehicle (0.25% sodium carboxymethylcellulose used in the formulation of ARTX compounds), or 100 μL ARTX-339, ARTX-405A, ARTX-413, or ARTX-425P1 at 20 mg/kg body weight by oral gavage on days 4, 6, 8, and 10. Mice were euthanized on day 12. FITC dextran was administered to the mice via oral gavage 4 hours prior to euthanization. Following euthanization, colons were dissected, and their lengths were measured.

[2] = tested on: TNBS-induced colitis in mice; experiment: Murine TNBS model of ulcerative colitis; format: in vivo; conditions: TNBS mouse model of UC
Protocol: FIGS. 2A-D illustrates that UAS03 is efficacious in a mouse 2,4,6-trinitrobenzenesulfonic acid (TNBS) model when administered either pre- or post-TNBS treatment. Pre-treatment: Mice (n=10 per group) were given UAS03 orally QD (20 mg/kg) for 7 days followed by administration of TNBS. Mice were euthanized 72 h post-TNBS treatment. Post-treatment: Mice (n=10 per group) received UAS03 QD (20 mg/kg) 24, 48, and 72 h post-TNBS. A) Ratio of colon weight/length. B) Intestinal permeability evaluated using a FITC-dextran leakage assay. C) Serum levels of TNF-α measured using a standard ELISA method. D) Claudin-4 (Cldn4) expression in mouse colons. […] Error bars, ±SEM; ***p<0.001.
Intra-rectal administration of 2,4,6-Trinitrobenzenesulfonic acid (TNBS) induces CD4^+-dependent colitis in mice resulting in increased intestinal permeability, shortening of colons, and increased inflammation^70. […] The symptoms that were reversed included body weight loss, colon weight/length ratio (FIG. 2A), increased gut permeability (FIG. 2B), and enhanced levels of inflammatory cytokines (FIG. 2C)^44. […] The beneficial effects of UAS03 in TNBS-treated mice were not observed in either AhR^−/− or Nrf2^−/− mutant mice^44. […] UAS03 was also efficacious in both acute and chronic dextran sodium sulfate (DSS)-induced^71,72 colitis models^44. […]

[3] = tested on: Cyp1A1; experiment: Activation of Cyp1A1 expression; format: cell-based
Protocol: Step 2: Selected compounds from step 1 were tested at a range of concentrations for activation of Cyp1A1 mRNA levels using qRT-PCR, for activation of Cyp1A1 enzymatic activity (ethoxyresorufin-O-deethylase (EROD) assay), or activation of an AhR-reporter gene driven by a so-called dioxin-response element (DRE) using commercially available kits. Activation of Cyp1A1 mRNA levels, activation of Cyp1A1 enzymatic activity, or activation of an AhR reporter gene construct driven by a DRE is generally considered to be indicative of a compound's ability to function as an AhR ligand. When activated by a ligand, cytosolic AhR translocates to the nucleus and dimerizes with the AhR nuclear translocator protein ARNT. The AhR/ARNT complex then binds to DREs to activate gene transcription.

[4] = Acute toxicity in rats; conditions: rat, in vivo
Text: (§1) However, potential genotoxicity of ARTX-86 is consistent with its planar structure, which may allow ARTX-86 to intercalate into the DNA double helix. It's possible that reactive metabolites of ARTX-86 are being formed by the S9 fraction and the ability of ARTX-86 to intercalate into the DNA helix delivers the radicals or other toxic metabolites directly to the DNA.

[5] = biological target: hERG (Homo sapiens, UniProt Q12809); experiment: hERG assay; conditions: up to 60 times the efficacious dose
Protocol: (§2) Step 4: Toxicity studies, including hERG and Ames tests, are conducted on compounds.

[6] = Preliminary PK studies in rats; conditions: rat, in vivo
Text: as §1

[7] = tested on: Salmonella strains; experiment: Ames test; conditions: one of the Salmonella strains; with / without liver S9 enzymes
Protocol: as §2, §1

[8] = pH 2.0 in the presence of gastric enzymes; cited from earlier work
[9] = tested on: bone marrow derived macrophages; conditions: cited from earlier work
[10] = tested on: LPS-elicited mouse peritonitis model; conditions: cited from earlier work
[11] = tested on: HT-29 and Caco-2 intestinal epithelial cell lines; conditions: RNA-seq and qRT-PCR; cited from earlier work
[12] = tested on: cytochrome P450 1A1 (Cyp1A1) and heme oxygenase 1 (HMOX1 or HO1) genes; conditions: cited from earlier work
[13] = tested on: TNBS-induced colitis in mice; conditions: cited from earlier work
[14] = tested on: DSS-induced colitis in mice; conditions: cited from earlier work
[15] = biological target: T1, AhR (Homo sapiens, UniProt P35869); conditions: published data; cited from earlier work
T1 sequence (P35869 11-848): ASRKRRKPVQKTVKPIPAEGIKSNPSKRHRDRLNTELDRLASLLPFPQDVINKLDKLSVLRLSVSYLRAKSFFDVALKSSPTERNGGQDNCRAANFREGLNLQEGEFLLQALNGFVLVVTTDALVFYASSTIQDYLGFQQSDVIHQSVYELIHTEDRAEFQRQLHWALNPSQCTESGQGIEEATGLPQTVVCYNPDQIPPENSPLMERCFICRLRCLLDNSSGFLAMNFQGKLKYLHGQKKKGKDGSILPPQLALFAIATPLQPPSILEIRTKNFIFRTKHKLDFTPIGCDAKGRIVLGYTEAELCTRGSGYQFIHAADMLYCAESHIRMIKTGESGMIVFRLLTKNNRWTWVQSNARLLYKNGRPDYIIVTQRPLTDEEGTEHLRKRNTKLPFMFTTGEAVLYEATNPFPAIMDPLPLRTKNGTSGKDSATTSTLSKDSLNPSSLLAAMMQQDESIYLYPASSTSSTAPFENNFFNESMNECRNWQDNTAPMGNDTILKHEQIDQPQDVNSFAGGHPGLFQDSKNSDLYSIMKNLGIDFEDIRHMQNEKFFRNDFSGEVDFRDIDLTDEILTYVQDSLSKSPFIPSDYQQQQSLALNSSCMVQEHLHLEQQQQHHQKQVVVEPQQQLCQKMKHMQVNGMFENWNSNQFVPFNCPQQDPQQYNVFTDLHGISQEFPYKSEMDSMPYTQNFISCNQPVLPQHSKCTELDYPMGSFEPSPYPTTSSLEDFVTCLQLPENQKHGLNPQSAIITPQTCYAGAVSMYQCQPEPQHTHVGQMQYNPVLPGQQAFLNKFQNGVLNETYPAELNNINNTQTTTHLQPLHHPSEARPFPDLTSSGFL

[16] = extensively tested; cited from earlier work

Chain of hERG (Q12809 whole entry): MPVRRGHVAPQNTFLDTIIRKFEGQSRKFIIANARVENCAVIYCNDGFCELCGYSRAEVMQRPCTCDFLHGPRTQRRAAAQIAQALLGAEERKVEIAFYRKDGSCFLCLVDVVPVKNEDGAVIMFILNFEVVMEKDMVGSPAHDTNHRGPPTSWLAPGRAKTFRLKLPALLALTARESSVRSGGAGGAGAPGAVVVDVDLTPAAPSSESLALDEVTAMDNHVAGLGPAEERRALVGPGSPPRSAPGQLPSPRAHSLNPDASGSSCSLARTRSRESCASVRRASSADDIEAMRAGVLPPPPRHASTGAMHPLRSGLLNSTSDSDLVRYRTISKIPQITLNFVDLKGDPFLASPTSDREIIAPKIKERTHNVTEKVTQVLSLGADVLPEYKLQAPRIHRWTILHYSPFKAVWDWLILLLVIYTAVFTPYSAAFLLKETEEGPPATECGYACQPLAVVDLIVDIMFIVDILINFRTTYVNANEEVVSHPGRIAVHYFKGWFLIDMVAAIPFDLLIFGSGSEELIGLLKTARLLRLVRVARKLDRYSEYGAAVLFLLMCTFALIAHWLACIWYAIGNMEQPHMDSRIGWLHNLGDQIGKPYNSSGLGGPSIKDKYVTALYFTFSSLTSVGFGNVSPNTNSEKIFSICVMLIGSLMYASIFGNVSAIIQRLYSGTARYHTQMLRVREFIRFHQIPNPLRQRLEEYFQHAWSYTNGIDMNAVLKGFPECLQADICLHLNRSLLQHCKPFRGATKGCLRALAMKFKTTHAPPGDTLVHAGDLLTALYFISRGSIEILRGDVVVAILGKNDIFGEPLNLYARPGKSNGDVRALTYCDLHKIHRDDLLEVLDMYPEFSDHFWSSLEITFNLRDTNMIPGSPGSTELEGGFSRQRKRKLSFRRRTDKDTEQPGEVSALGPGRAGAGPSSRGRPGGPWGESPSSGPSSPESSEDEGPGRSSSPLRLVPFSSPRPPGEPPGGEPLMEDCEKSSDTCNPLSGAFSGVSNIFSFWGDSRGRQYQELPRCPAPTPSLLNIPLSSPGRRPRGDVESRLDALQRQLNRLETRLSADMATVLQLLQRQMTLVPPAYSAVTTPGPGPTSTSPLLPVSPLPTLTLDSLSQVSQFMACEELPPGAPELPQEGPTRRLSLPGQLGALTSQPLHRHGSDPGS

CC(C)[C@@H]1Oc2cc(O)ccc2-c2ccc(F)cc21 (single isomer, unassigned) [ARTX-425P1]
efficacy in the murine DSS model of colitis [1]: exhibited efficacy | DSS-elicited body weight loss [1]: highly statistically significant | disease activity index (DAI) [1]: highly statistically significant | colon length [1]: a statistically significant increase in colon length was not observed

Oc1ccc2c(c1)OCc1cc(F)ccc1-2 [ARTX-86]
efficacy compared with UAS03 [2]: equally efficacious as UAS03 | activating the expression of Cyp1A1, compared with UroA and UAS03 [3]: comparably active as UroA and UAS03 | efficacy compared with UAS03 ([1]; DSS mouse model of UC): equally efficacious as UAS03 | NOAEL [4]: 1000 mg/kg/day | MTD ([4]; acute toxicity): > 2000 mg/kg | cardiotoxicity in hERG assay [5]: not cardiotoxic | half-life ([6]; 20 mg/kg): 2.22 ± 0.5 h | Cmax ([6]; dosed at 20 mg/kg): 92 ± 15 ng/mL | Ames test result [7]: tested positive in the presence but not the absence of liver S9 enzymes

Oc1cc(O)c2c(c1)C1(CCCC1)c1cc(F)ccc1-2 [ARTX-405A, 7′-fluorospiro[cyclopentane-1,9′-fluorene]-2′,4′-diol]
efficacy in the murine DSS model of colitis [1]: exhibited efficacy | DSS-elicited body weight loss [1]: highly effective | disease activity index (DAI) [1]: highly effective | colon length [1]: highly effective

Oc1ccc2c(c1)COc1cc(O)ccc1-2 [UAS03]
time stable [8]: at least 12 hours | levels of LPS-induced TNF-α, IL-6, CXCL-1, and IL-1β [9]: markedly decreased | levels of LPS-induced TNF-α, IL-6, CXCL-1, and IL-1β [10]: markedly decreased | expression of tight junction proteins claudin 4, ZO-1, and occludin 1 [11]: upregulates | expression of Cyp1A1 and HO1 genes [12]: activated | potency relative to UroA ([13]; TNBS model): about 10 fold | beneficial effects in AhR−/− or Nrf2−/− mutant mice ([13]; TNBS-treated AhR−/− or Nrf2−/− mice): not observed | claudin 4 (Cldn4) expression / protein levels ([13]; TNBS-treated mice, colons): induced the expression; also recorded: reversed a dramatic decrease | UC symptoms (body weight loss, colon weight/length ratio, gut permeability, inflammatory cytokines) ([13]; orally QD or BID for three days following TNBS, 20 mg/kg): dramatically reversed | development of TNBS-elicited symptoms ([13]; pre-treated QD for 7 days at 20 mg/kg): blocked | protection in chronic DSS model ([14]; 4 cycles of 2% DSS, 90 day experiment, UAS03 QD 20 mg/kg): protected against DSS-induced chronic colitis | efficacy in acute and chronic DSS-induced colitis models ([14]; mouse, in vivo): efficacious

O=c1oc2cc(O)ccc2c2ccc(O)cc12 [UroA, Urolithin A]
hydrolysis [8]: rapidly hydrolyzed | AhR ligand activity [15]: AhR ligand that activates the AhR signaling pathway | genotoxicity [16]: no indications of genotoxicity have been reported
